According to patent US20100168084A1, “Therapeutic compounds and related methods of use” (priority 2008, published 2010):
Where two headings read alike, the source gives them in different places.

Target: T1, sirtuin protein (Homo sapiens, UniProt Q96EB6)
T1 sequence (Q96EB6 2-747 limits assumed): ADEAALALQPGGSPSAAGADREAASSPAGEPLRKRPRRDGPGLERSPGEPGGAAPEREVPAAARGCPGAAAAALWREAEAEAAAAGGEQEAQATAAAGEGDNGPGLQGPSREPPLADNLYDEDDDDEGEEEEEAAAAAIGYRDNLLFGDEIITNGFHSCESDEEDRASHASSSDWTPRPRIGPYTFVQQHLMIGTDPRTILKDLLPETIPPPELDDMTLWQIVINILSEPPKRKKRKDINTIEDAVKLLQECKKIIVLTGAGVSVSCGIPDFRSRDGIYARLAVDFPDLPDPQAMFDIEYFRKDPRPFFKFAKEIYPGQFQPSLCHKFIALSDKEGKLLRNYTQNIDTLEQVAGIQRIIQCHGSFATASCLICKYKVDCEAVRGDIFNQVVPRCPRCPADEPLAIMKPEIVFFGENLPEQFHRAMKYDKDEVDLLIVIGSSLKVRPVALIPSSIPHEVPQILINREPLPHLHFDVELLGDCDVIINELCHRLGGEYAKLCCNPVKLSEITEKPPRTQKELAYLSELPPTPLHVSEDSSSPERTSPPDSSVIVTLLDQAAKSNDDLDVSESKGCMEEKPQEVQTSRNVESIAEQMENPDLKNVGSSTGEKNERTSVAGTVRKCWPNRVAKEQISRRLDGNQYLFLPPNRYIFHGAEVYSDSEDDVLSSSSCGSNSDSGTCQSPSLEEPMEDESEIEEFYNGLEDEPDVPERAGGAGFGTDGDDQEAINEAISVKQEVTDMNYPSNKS
Assay: MS assay (IC50 MS ASSAY / ED50 MS / FOLD ACTIVATION MS)
Format: biochemical
Set-up: scale not given here

[1] = Table 4, class symbols A′, A, B, D, NA, legend not given
[2] = class symbols (A′, A, B, D, NA), no legend given

O=C(Nc1ccccc1-c1nc2cccnc2[nH]1)c1ccc(N2CCCCC2)cc1 [Compound 527]
A′: ED50 MS ASSAY | ED50 MS ASSAY (Table 4) | ED50 MS ASSAY (Table 4, class symbols) | ED50 MS ASSAY [1] | ED50 MS ASSAY [2]

COc1ccc(C(=O)Nc2ccccc2-c2nc3cccnc3[nH]2)cc1C(F)(F)F [Compound 528]
A′: ED50 MS ASSAY | ED50 MS ASSAY (Table 4) | ED50 MS ASSAY (Table 4, class symbols) | ED50 MS ASSAY [1] | ED50 MS ASSAY [2]

O=C(Nc1ccccc1-c1nc2cccnc2[nH]1)c1cccc(OC(F)(F)F)c1 [Compound 529]
A′: ED50 MS ASSAY | ED50 MS ASSAY (Table 4) | ED50 MS ASSAY (Table 4, class symbols) | ED50 MS ASSAY [1] | ED50 MS ASSAY [2]

COc1cccc(C(=O)Nc2ccccc2-c2nc3cccnc3[nH]2)c1C [Compound 530]
A′: ED50 MS ASSAY | ED50 MS ASSAY (Table 4) | ED50 MS ASSAY (Table 4, class symbols) | ED50 MS ASSAY [1] | ED50 MS ASSAY [2]

COc1ccc(C(=O)Nc2ccccc2-c2nc3cccnc3[nH]2)cc1 [Compound 531]
A′: ED50 MS ASSAY | ED50 MS ASSAY (Table 4) | ED50 MS ASSAY (Table 4, class symbols) | ED50 MS ASSAY [1] | ED50 MS ASSAY [2]

COc1cccc(C(=O)Nc2ccccc2-c2nc3cccnc3[nH]2)c1 [Compound 532]
A′: ED50 MS ASSAY | ED50 MS ASSAY (Table 4) | ED50 MS ASSAY (Table 4, class symbols) | ED50 MS ASSAY [1] | ED50 MS ASSAY [2]

O=C(Nc1ccccc1-c1nc2cccnc2[nH]1)c1ccccc1 [Compound 533]
A′: ED50 MS ASSAY | ED50 MS ASSAY (Table 4) | ED50 MS ASSAY (Table 4, class symbols) | ED50 MS ASSAY [1] | ED50 MS ASSAY [2]

CN(C)c1ccc(C(=O)Nc2ccccc2-c2nc3cccnc3[nH]2)cc1 [Compound 534]
A′: ED50 MS ASSAY | ED50 MS ASSAY (Table 4) | ED50 MS ASSAY (Table 4, class symbols) | ED50 MS ASSAY [1] | ED50 MS ASSAY [2]

COc1cc(C(=O)Nc2ccccc2-c2nc3cccnc3[nH]2)ccc1CN1CCOCC1 [Compound 537]
A′: ED50 MS ASSAY | ED50 MS ASSAY (Table 4) | ED50 MS ASSAY (Table 4, class symbols) | ED50 MS ASSAY [1] | ED50 MS ASSAY [2]

COc1cc(C(=O)Nc2ccccc2-c2nc3cccnc3[nH]2)ccc1CN1CCN(C)CC1 [Compound 539]
A′: ED50 MS ASSAY | ED50 MS ASSAY (Table 4) | ED50 MS ASSAY (Table 4, class symbols) | ED50 MS ASSAY [1] | ED50 MS ASSAY [2]

O=C(Nc1ccccc1-c1cn2c(CN3CCNCC3)csc2n1)c1cnccn1 [Compound 543]
A′: ED50 MS ASSAY | ED50 MS ASSAY (Table 4) | ED50 MS ASSAY (Table 4, class symbols) | ED50 MS ASSAY [1] | ED50 MS ASSAY [2]

O=C(Nc1ccccc1-c1cn2c(n1)CCCC2)c1ccc2ccccc2n1 [Compound 547]
A′: ED50 MS ASSAY | ED50 MS ASSAY (Table 4) | ED50 MS ASSAY (Table 4, class symbols) | ED50 MS ASSAY [1] | ED50 MS ASSAY [2]

O=C(Nc1ccccc1-c1cn2c(n1)CCCC2)c1cnc2ccccc2n1 [Compound 548]
A′: ED50 MS ASSAY | ED50 MS ASSAY (Table 4) | ED50 MS ASSAY (Table 4, class symbols) | ED50 MS ASSAY [1] | ED50 MS ASSAY [2]

O=C(Nc1ccccc1-c1nc2ccccc2[nH]1)c1ccc2ccccc2n1 [Compound 556]
A′: ED50 MS ASSAY | ED50 MS ASSAY (Table 4) | ED50 MS ASSAY (Table 4, class symbols) | ED50 MS ASSAY [1] | ED50 MS ASSAY [2]

COc1cc(C(=O)Nc2ccccc2-c2nc3ccccc3[nH]2)ccc1CN1CCNCC1 [Compound 558]
A′: ED50 MS ASSAY | ED50 MS ASSAY (Table 4) | ED50 MS ASSAY (Table 4, class symbols) | ED50 MS ASSAY [1] | ED50 MS ASSAY [2]

COc1ccc(C(=O)Nc2ccc(-c3nc4ccncc4o3)s2)c(OC)c1 [Compound 561]
A′: ED50 MS ASSAY | ED50 MS ASSAY (Table 4) | ED50 MS ASSAY (Table 4, class symbols) | ED50 MS ASSAY [1] | ED50 MS ASSAY [2]

COc1cc(OC)cc(C(=O)Nc2ccc(-c3nc4ccncc4o3)s2)c1 [Compound 562]
A′: ED50 MS ASSAY | ED50 MS ASSAY (Table 4) | ED50 MS ASSAY (Table 4, class symbols) | ED50 MS ASSAY [1] | ED50 MS ASSAY [2]

COc1cc(C(=O)Nc2ccccc2-c2nc3ccccc3[nH]2)ccc1CN1CCCC1 [Compound 587]
A′: ED50 MS ASSAY | ED50 MS ASSAY (Table 4) | ED50 MS ASSAY (Table 4, class symbols) | ED50 MS ASSAY [1] | ED50 MS ASSAY [2]

COc1cc(OC)cc(C(=O)Nc2ccccc2-c2nc3cc(CN4CCNCC4)cnc3s2)c1 [Compound 589]
A′: ED50 MS ASSAY | ED50 MS ASSAY (Table 4) | ED50 MS ASSAY (Table 4, class symbols) | ED50 MS ASSAY [1] | ED50 MS ASSAY [2]

Cc1ccc(C(=O)Nc2ccccc2-c2nc3cc(CN4CCNCC4)cnc3s2)cc1C [Compound 591]
A′: ED50 MS ASSAY | ED50 MS ASSAY (Table 4) | ED50 MS ASSAY (Table 4, class symbols) | ED50 MS ASSAY [1] | ED50 MS ASSAY [2]

N#Cc1cccc(C(=O)Nc2ccccc2-c2nc3cc(CN4CCNCC4)cnc3s2)c1 [Compound 592]
A′: ED50 MS ASSAY | ED50 MS ASSAY (Table 4) | ED50 MS ASSAY (Table 4, class symbols) | ED50 MS ASSAY [1] | ED50 MS ASSAY [2]

CN(C)c1cccc(C(=O)Nc2ccccc2-c2nc3cc(CN4CCNCC4)cnc3s2)c1 [Compound 593]
A′: ED50 MS ASSAY | ED50 MS ASSAY (Table 4) | ED50 MS ASSAY (Table 4, class symbols) | ED50 MS ASSAY [1] | ED50 MS ASSAY [2]

O=C(Nc1ccccc1-c1cn2c(CN3CCOCC3)csc2n1)c1cnc2ccccc2n1 [Compound 617]
A′: ED50 MS ASSAY | ED50 MS ASSAY (Table 4) | ED50 MS ASSAY (Table 4, class symbols) | ED50 MS ASSAY [1] | ED50 MS ASSAY [2]

O=C(Nc1ccccc1-c1cn2c(CN3CCCCC3)csc2n1)c1cnc2ccccc2n1 [Compound 618]
A′: ED50 MS ASSAY | ED50 MS ASSAY (Table 4) | ED50 MS ASSAY (Table 4, class symbols) | ED50 MS ASSAY [1] | ED50 MS ASSAY [2]

O=C(Nc1ccccc1-c1cn2c(CN3CCCC3)csc2n1)c1cnc2ccccc2n1 [Compound 619]
A′: ED50 MS ASSAY | ED50 MS ASSAY (Table 4) | ED50 MS ASSAY (Table 4, class symbols) | ED50 MS ASSAY [1] | ED50 MS ASSAY [2]

COc1cc(C(=O)Nc2ccccc2-c2cn3c(CN4CCCC4)csc3n2)cc(OC)c1OC [Compound 620]
A′: ED50 MS ASSAY | ED50 MS ASSAY (Table 4) | ED50 MS ASSAY (Table 4, class symbols) | ED50 MS ASSAY [1] | ED50 MS ASSAY [2]

O=C(Nc1ncccc1-c1cn2c(CN3CCOCC3)csc2n1)c1cnc2ccccc2n1 [Compound 621]
A′: ED50 MS ASSAY | ED50 MS ASSAY (Table 4) | ED50 MS ASSAY (Table 4, class symbols) | ED50 MS ASSAY [1] | ED50 MS ASSAY [2]

O=C(Nc1ccccc1-c1nc2cc(CN3CCNCC3)cnc2s1)c1cnc2ccccc2n1 [Compound 622]
A′: ED50 MS ASSAY | ED50 MS ASSAY (Table 4) | ED50 MS ASSAY (Table 4, class symbols) | ED50 MS ASSAY [1] | ED50 MS ASSAY [2]

O=C(Nc1ccccc1-c1cn2c(CN3CCNCC3)csc2n1)c1cc2ccccc2o1 [Compound 624]
A′: ED50 MS ASSAY | ED50 MS ASSAY (Table 4) | ED50 MS ASSAY (Table 4, class symbols) | ED50 MS ASSAY [1] | ED50 MS ASSAY [2]
